Assay results published in patent US10039283B2, “Substituted pyrazolyl-nicotin(thio)amide derivatives and their use as fungicides” (BAYER CROPSCIENCE AKTIENGESELLSCHAFT, priority 2014, dated 2018).

Test: Log P by HPLC on reversed phase, method [a], acidic range (0.1% formic acid)
Type: physicochemical
Conditions: LC-UV, 0.1% formic acid in water and acetonitrile

SMILES	LogP
Cc1cnc(C(F)F)c(C(=O)Nc2cnn(-c3cc(Cl)cc(Cl)c3)c2C(F)(F)F)c1 [Example 174]	3.89^[a]
Cc1cnc(C(F)F)c(C(=O)Nc2cnn(-c3cc(Cl)ccc3Cl)c2C(F)(F)F)c1 [Example 175]	3.39^[a]
O=C(Nc1cnn(-c2cc(Cl)ccc2Cl)c1C(F)(F)F)c1ccc(Cl)nc1C(F)F [Example 176]	3.76^[a]
COc1cnc(C(F)F)c(C(=O)Nc2cnn(-c3cc(Cl)ccc3Cl)c2C(F)(F)F)c1 [Example 177]	3.39^[a]
O=C(Nc1cnn(-c2cc(Cl)ccc2Cl)c1C(F)(F)F)c1ccc(Br)nc1C(F)F [Example 178]	3.85^[a]
Cc1cnc(C(F)F)c(C(=O)Nc2cnn(-c3ccc(Cl)c(Cl)c3)c2C(F)(F)F)c1 [Example 179]	3.76^[a]
O=C(Nc1cnn(-c2ccc(Cl)c(Cl)c2)c1C(F)(F)F)c1ccc(Cl)nc1C(F)F [Example 180]	4.11^[a]
O=C(Nc1cnn(-c2ccc(Cl)c(Cl)c2)c1C(F)(F)F)c1ccc(Br)nc1C(F)F [Example 181]	4.19^[a]
O=C(Nc1cnn(-c2ccccc2Cl)c1Cl)c1cccnc1C(F)F [Example 191]	2.17^[a]
O=C(Nc1cnn(-c2cc(Cl)cc(Cl)c2)c1Cl)c1cccnc1C(F)F [Example 202]	3.19^[a]
O=C(Nc1cnn(-c2cc(Cl)cc(Cl)c2)c1Br)c1cccnc1C(F)F [Example 203]	3.23^[a]
CCc1c(NC(=O)c2cc(C)cnc2C(F)F)cnn1-c1ccccc1C [Example 204]	2.44^[a]
Cc1cnc(C(F)F)c(C(=O)Nc2cnn(-c3ccccc3C)c2C(C)C)c1 [Example 205]	2.60^[a]
CCc1c(NC(=O)c2cc(C)cnc2C(F)F)cnn1-c1cccc(C)c1 [Example 206]	2.57^[a]
CCc1c(NC(=O)c2cc(C)cnc2C(F)F)cnn1-c1ccc(C)cc1 [Example 207]	2.57^[a]
Cc1ccc(-n2ncc(NC(=O)c3cc(C)cnc3C(F)F)c2C(C)C)cc1 [Example 208]	2.73^[a]
Cc1cnc(C(F)F)c(C(=O)Nc2cnn(-c3ccccc3Cl)c2C(C)C)c1 [Example 209]	2.59^[a]
Cc1cnc(C(F)F)c(C(=O)Nc2cnn(-c3cccc(Cl)c3)c2C(C)C)c1 [Example 210]	2.84^[a]

SMILES	LogP
Cc1cnc(C(F)F)c(C(=O)Nc2cnn(-c3ccc(Cl)cc3)c2C(C)C)c1 [Example 211]	2.86^[a]
CCc1c(NC(=O)c2cc(C)cnc2C(F)F)cnn1-c1ccccc1Cl [Example 212]	2.41^[a]
CCc1c(NC(=O)c2cc(C)cnc2C(F)F)cnn1-c1cccc(Cl)c1 [Example 213]	2.71^[a]
CCc1c(NC(=O)c2cc(C)cnc2C(F)F)cnn1-c1ccc(Cl)cc1 [Example 214]	2.73^[a]
COc1c(NC(=O)c2cccnc2C(F)F)cnn1-c1ccccc1Cl [Example 215]	1.85^[a]
COc1c(NC(=O)c2cccnc2C(F)F)cnn1-c1cc(Cl)cc(Cl)c1 [Example 216]	3.02^[a]
O=C(Nc1cnn(-c2ccccc2Cl)c1Br)c1cccnc1C(F)F [Example 217]	2.18^[a]
CC(C)Oc1c(NC(=O)c2cccnc2C(F)F)cnn1-c1ccc(Cl)cc1 [Example 226]	2.86^[a]
CCCOc1c(NC(=O)c2cccnc2C(F)F)cnn1-c1ccc(Cl)cc1 [Example 227]	2.95^[a]
Cc1cccc(-n2ncc(NC(=O)c3cc(C)cnc3C(F)F)c2C(C)C)c1 [Example 238]	2.75^[a]
CCc1c(NC(=O)c2cc(C)cnc2C(F)F)cnn1-c1cccc(C(F)(F)F)c1 [Example 239]	2.94^[a]
CCc1c(NC(=O)c2cc(C)cnc2C(F)F)cnn1-c1ccc(C(F)(F)F)cc1 [Example 240]	3.00^[a]
Cc1cnc(C(F)F)c(C(=O)Nc2cnn(-c3ccc(OC(F)(F)F)cc3)c2C)c1 [Example 241]	2.86^[a]
COCc1c(NC(=O)c2cc(C)cnc2C(F)F)cnn1-c1ccc(Br)cc1 [Example 250]	2.80^[a]
COCc1c(NC(=O)c2cccnc2C(F)F)cnn1-c1ccc(Br)cc1 [Example 251]	2.58^[a]
O=C(Nc1cnn(-c2ccc(Cl)c(Cl)c2)c1Cl)c1cccnc1C(F)F [Example 252]	3.06^[a]
O=C(Nc1cnn(-c2cc(F)c(F)c(F)c2)c1Cl)c1cccnc1C(F)F [Example 253]	2.66^[a]

Results, then the compound that gave them:

LogP	SMILES
3.55^[a]	O=C(Nc1cnn(-c2ccc(C(F)(F)F)cc2)c1-c1ccc(Cl)cc1)c1cccnc1C(F)F [Example 182]
2.55^[a]	O=C(Nc1cnn(-c2ccc(Cl)cc2)c1Cl)c1cccnc1C(F)F [Example 183]
3.31^[a]	O=C(Nc1cnn(-c2ccc(C(F)(F)F)cc2)c1-c1ccc(F)cc1)c1cccnc1C(F)F [Example 184]
3.31^[a]	O=C(Nc1cnn(-c2ccc(C(F)(F)F)cc2)c1-c1cccc(F)c1)c1cccnc1C(F)F [Example 185]
3.24^[a]	O=C(Nc1cnn(-c2ccc(C(F)(F)F)cc2)c1-c1ccccc1)c1cccnc1C(F)F [Example 186]
3.10^[a]	O=C(Nc1cnn(-c2ccc(Cl)cc2)c1-c1ccc(F)cc1)c1cccnc1C(F)F [Example 187]
2.81^[a]	O=C(Nc1cnn(-c2ccc(C(F)(F)F)cc2)c1Cl)c1cccnc1C(F)F [Example 188]
2.09^[a]	COc1ccc(-n2ncc(NC(=O)c3cccnc3C(F)F)c2Cl)cc1 [Example 189]
2.14^[a]	O=C(Nc1cnn(-c2ccc(F)cc2)c1Cl)c1cccnc1C(F)F [Example 190]
2.17^[a]	O=C(Nc1cnn(-c2ccc(F)cc2)c1Br)c1cccnc1C(F)F [Example 192]
2.09^[a]	COc1ccc(-n2ncc(NC(=O)c3cccnc3C(F)F)c2Br)cc1 [Example 193]
3.35^[a]	O=C(Nc1cnn(-c2ccc(Cl)cc2)c1-c1ccc(Cl)cc1)c1cccnc1C(F)F [Example 194]
3.20^[a]	O=C(Nc1cnn(-c2ccc(Br)cc2)c1-c1ccc(F)cc1)c1cccnc1C(F)F [Example 195]
3.10^[a]	O=C(Nc1cnn(-c2ccc(Br)cc2)c1-c1ccccc1)c1cccnc1C(F)F [Example 196]
3.07^[a]	O=C(Nc1cnn(-c2ccc(Cl)cc2)c1-c1cccc(F)c1)c1cccnc1C(F)F [Example 197]
2.99^[a]	O=C(Nc1cnn(-c2ccc(Cl)cc2)c1-c1ccccc1)c1cccnc1C(F)F [Example 198]
3.46^[a]	O=C(Nc1cnn(-c2ccc(Br)cc2)c1-c1cccc(Cl)c1)c1cccnc1C(F)F [Example 199]
3.46^[a]	O=C(Nc1cnn(-c2ccc(Br)cc2)c1-c1ccc(Cl)cc1)c1cccnc1C(F)F [Example 200]
3.19^[a]	O=C(Nc1cnn(-c2ccc(Br)cc2)c1-c1cccc(F)c1)c1cccnc1C(F)F [Example 201]
2.32^[a]	COc1c(NC(=O)c2cccnc2C(F)F)cnn1-c1ccc(Cl)cc1 [Example 218]
2.63^[a]	COc1c(NC(=O)c2cccnc2C(F)F)cnn1-c1ccc(C(F)(F)F)cc1 [Example 219]
2.50^[a]	O=C(Nc1cnn(-c2ccc(Cl)cc2)c1Br)c1cccnc1C(F)F [Example 220]
2.88^[a]	O=C(Nc1cnn(-c2ccc(Cl)cc2)c1OCC(F)(F)F)c1cccnc1C(F)F [Example 221]

LogP	SMILES
2.60^[a]	O=C(Nc1cnn(-c2ccc(Cl)cc2)c1OCC(F)F)c1cccnc1C(F)F [Example 222]
2.64^[a]	N#Cc1c(NC(=O)c2cccnc2C(F)F)cnn1-c1ccc(Cl)cc1 [Example 223]
3.25^[a]	O=C(Nc1cnn(-c2ccc(Cl)cc2)c1SC(F)(F)F)c1cccnc1C(F)F [Example 224]
2.62^[a]	CCOc1c(NC(=O)c2cccnc2C(F)F)cnn1-c1ccc(Cl)cc1 [Example 225]
3.43^[a]	O=C(Nc1cnn(-c2ccc(Br)cc2)c1SC(F)(F)F)c1cccnc1C(F)F [Example 228]
3.59^[a]	CCCc1ccc(-n2ncc(NC(=O)c3cccnc3C(F)F)c2C(F)(F)F)cc1 [Example 229]
2.88^[a]	CCOc1ccc(-n2ncc(NC(=O)c3cccnc3C(F)F)c2C(F)(F)F)cc1 [Example 230]
3.79^[a]	CC(C)(C)c1ccc(-n2ncc(NC(=O)c3cccnc3C(F)F)c2C(F)(F)F)cc1 [Example 231]
3.59^[a]	O=C(Nc1cnn(-c2ccc(-c3ccccc3)cc2)c1C(F)(F)F)c1cccnc1C(F)F [Example 232]
3.59^[a]	O=C(Nc1cnn(-c2ccc(Oc3ccccc3)cc2)c1C(F)(F)F)c1cccnc1C(F)F [Example 233]
3.25^[a]	O=C(Nc1cnn(-c2ccc(I)cc2)c1C(F)(F)F)c1cccnc1C(F)F [Example 234]
2.68^[a]	O=C(Nc1cnn(-c2ccc(Br)cc2)c1OCC(F)F)c1cccnc1C(F)F [Example 235]
2.67^[a]	O=C(Nc1cnn(-c2ccc(Cl)cc2)c1C(F)(F)F)c1cccnc1CF [Example 236]
2.12^[a]	Cc1ncccc1C(=O)Nc1cnn(-c2ccc(Cl)cc2)c1C(F)(F)F [Example 237]
2.64^[a]	Cc1c(NC(=O)c2cccnc2C(F)F)cnn1-c1ccc(OC(F)(F)F)cc1 [Example 242]
3.68^[a]	O=C(Nc1cnn(-c2ccc(SC(F)(F)F)cc2)c1C(F)(F)F)c1cccnc1C(F)F [Example 243]
4.11^[a]	O=C(Nc1cnn(-c2ccc(Oc3ccc(Cl)cc3)cc2)c1C(F)(F)F)c1cccnc1C(F)F [Example 244]
4.03^[a]	Cc1ccc(Oc2ccc(-n3ncc(NC(=O)c4cccnc4C(F)F)c3C(F)(F)F)cc2)cc1 [Example 245]
2.94^[a]	CSc1ccc(-n2ncc(NC(=O)c3cccnc3C(F)F)c2C(F)(F)F)cc1 [Example 246]
3.19^[a]	O=C(Nc1cnn(-c2ccc(OC(F)(F)C(F)F)cc2)c1C(F)(F)F)c1cccnc1C(F)F [Example 247]
2.80^[a]	O=C(Nc1cnn(-c2ccc(Br)cc2)c1C(F)(F)F)c1cccnc1CF [Example 248]
2.28^[a]	Cc1ncccc1C(=O)Nc1cnn(-c2ccc(Br)cc2)c1C(F)(F)F [Example 249]
4.11^[a]	O=C(Nc1cnn(-c2ccc(OC3CCCCC3)cc2)c1C(F)(F)F)c1cccnc1C(F)F [Example 254]
